# Laboratory results taken from patent publication US8247595B2, “Organic sulfur compound and its use for controlling harmful arthropod” (Sumitomo Chemical Company, Limited, priority 2007, dated 2012).
# How the values were obtained:
# Assay type in all cases: in vivo
# Musca domestica = test: Test Example 2: treated filter paper with sucrose bait, death rate of Musca domestica; settings: 500 ppm test solution, 0.7 ml on filter paper, 10 female imagoes, after 24 hours
# Experimental: (§1) Preparations of the present compounds (1), (2), (3), (4), (5), (6), (7), (8), (9), (10), (13), (18), (23), (24), (25), (26), (27), (28), (29), (30), (31), (32), (33), (34), (35), (38) and (39) obtained according to Formulation Example 44 were diluted so that the active ingredient concentration was 500 ppm to obtain test solutions.
# (§2) A filter paper having a diameter of 5.5 cm was spread on the bottom of a polyethylene cup having a diameter of 5.5 cm and 0.7 ml of the test solution was added dropwise onto the filter paper. As a bait 30 mg of sucrose was uniformly placed on the filter paper. Into the polyethylene cup, 10 female imagoes of Musca domestica were released and the cup was sealed with a lid. After 24 hours, the number of surviving Musca domestica was examined and the death rate of the pest was calculated.
# As a result, in treatments with the present compounds (1), (2), (3), (4), (5), (6), (7), (8), (9), (10), (13), (18), (23), (24), (25), (26), (27), (28), (29), (30), (31), (32), (33), (34), (35), (38) and (39), the death rate of the pest was 70% or more.
# Culex pipiens pallens = test: Test Example 4: larvae released into treated water, death rate of Culex pipiens pallens; settings: 24 h, active ingredient concentration 3.5 ppm in water, 20 last-instar larvae, after one day
# Experimental: as §1, with “(7),” for “(7), (8), (9), (10),”, “(13), (14), (15), (16),” for “(13),”, “(18), (22),” for “(18),”, “(35), (36),” for “(35),”
# To 100 mL of ion-exchanged water, 0.7 ml of the test solution was added (active ingredient concentration: 3.5 ppm). Into the solution, 20 last-instar larvae of Culex pipiens pallens were released. After one day, the number of surviving Culex pipiens pallens was examined and the death rate of the pest was calculated.
# As a result, in treatments with the present compounds (1), (2), (3), (4), (5), (6), (7), (13), (14), (15), (16), (18), (22), (23), (24), (25), (26), (27), (28), (29), (30), (31), (32), (33), (34), (35), (36), (38) and (39), the death rate of the pest was 90% or more.
# Blattalla germanica = test: Test Example 3: treated filter paper with sucrose bait, death rate of Blattalla germanica; settings: 500 ppm test solution, 0.7 ml on filter paper, 2 male imagoes, after 6 days; for pest or weed control at 500 ppm: 144 h
# Experimental: as §1, with “compounds” for “compounds (1), (2),”, “(7),” for “(7), (8),”, “(13),” for “(13), (18),”
# as §2, with “2 male” for “10 female”, “Blattalla germanica” for “Musca domestica”, “6 days,” for “24 hours,”
# As a result, in treatments with the present compounds (3), (4), (5), (6), (7), (9), (10), (13), (23), (24), (25), (26), (27), (28), (29), (30), (31), (32), (33), (34), (35), (38) and (39), the death rate of the pest was 100%.
# [1] = tested on: Haemaphysalis longicornis; test: Test Example 5: treated filter paper pouch, death rate of ticks; settings: 48 h, filter paper treated with 100 mg/m^2, non-blood-sucking nymphal ticks, 10 ticks/group, after 2 days, read-out: death rate of the tick
# Experimental: Five milligrams of any one of the present compounds (19), (23), (24), (27), (28), (29), (32), (33), (35), (38) and (39) was dissolved in 10 mL of acetone. One milliliter of the acetone solution was uniformly applied on one side of a filter paper (TOYO No. 2; 5×10 cm), so that the filter paper was treated with 100 mg/m^2 of the present compound. After drying, the filter paper was folded in two and its edges were clipped to make a pouch. Non-blood-sucking nymphal ticks (Haemaphysalis longicornis, 10 ticks/group) were put into the pouch, and the pouch was sealed with clips. After 2 days, the number of surviving ticks was examined and the death rate was calculated.
# As a result, in treatments with the present compounds (19), (23), (24), (27), (28), (29), (32), (33), (35), (38) and (39), the death rate of the tick was 90%.
SMILES,pest or weed control at 500 ppm (Musca domestica),pest or weed control at 3.5 ppm (Culex pipiens pallens),pest or weed control at 500 ppm (Blattalla germanica),death rate of the pest (Blattalla germanica),pest or weed control at 100 mg/m2 [1]
"C#CCCCCC(C(=O)OC)S(=O)(=O)CCC(F)(F)F (stereo not drawn) [present compound (1), methyl 2-(3,3,3-trifluoropropylsulfonyl)-7-octynoate]",≥ 70%,≥ 90%,–,–,–
"C#CCCCCC(F)(C(=O)OC)S(=O)(=O)CCC(F)(F)F (stereo not drawn) [present compound (2), methyl 2-fluoro-2-(3,3,3-trifluoropropylsulfonyl)-7-octynoate]",≥ 70%,≥ 90%,–,–,–
"C#CCCCCC(F)(C(N)=O)S(=O)(=O)CCC(F)(F)F (stereo not drawn) [present compound (3), 2-fluoro-2-(3,3,3-trifluoropropylsulfonyl)-7-octynamide]",≥ 70%,≥ 90%,100%,–,–
"C#CCCCCC(Cl)(C(=O)OC)S(=O)(=O)CCC(F)(F)F (stereo not drawn) [present compound (4), methyl 2-chloro-2-(3,3,3-trifluoropropylsulfonyl)-7-octyonate]",–,–,–,100%,–
"C#CCCCCC(Cl)(C(N)=O)S(=O)(=O)CCC(F)(F)F (stereo not drawn) [present compound (5), 2-chloro-2-(3,3,3-trifluoropropylsulfonyl)-7-octynamide]",≥ 70%,≥ 90%,100%,–,–
"C#CCCCCC(C)(C(=O)OC)S(=O)(=O)CCC(F)(F)F (stereo not drawn) [present compound (6), methyl 2-methyl-2-(3,3,3-trifluoropropylsulfonyl)-7-octyonate]",–,–,–,100%,–
"C#CCCCCC(C)(C(N)=O)S(=O)(=O)CCC(F)(F)F (stereo not drawn) [present compound (7), 2-methyl-2-(3,3,3-trifluoropropylsulfonyl)-7-octynamide]",≥ 70%,≥ 90%,100%,–,–
"C#CCCC(C(=O)OC)S(=O)(=O)CCC(F)(F)F (stereo not drawn) [present compound (8), methyl 2-(3,3,3-trifluoropropylsulfonyl)-5-hexynoate]",≥ 70%,–,–,–,–
"C#CCCC(F)(C(=O)OC)S(=O)(=O)CCC(F)(F)F (stereo not drawn) [present compound (9), methyl 2-fluoro-2-(3,3,3-trifluoropropylsulfonyl)-5-hexynoate]",≥ 70%,–,100%,–,–
"C#CCCC(F)(C(N)=O)S(=O)(=O)CCC(F)(F)F (stereo not drawn) [present compound (10), 2-fluoro-2-(3,3,3-trifluoropropylsulfonyl)-5-hexynamide]",≥ 70%,–,100%,–,–
"C#CCCCC(F)(C(N)=O)S(=O)(=O)CCC(F)(F)F (stereo not drawn) [present compound (13), 2-fluoro-2-(3,3,3-trifluoropropylsulfonyl)-6-heptynamide]",≥ 70%,≥ 90%,100%,–,–
"C#CCCCCCC(C(=O)OC)S(=O)(=O)CCC(F)(F)F (stereo not drawn) [present compound (14), methyl 2-(3,3,3-trifluoropropylsulfonyl)-8-nonynoate]",–,≥ 90%,–,–,–
"C#CCCCCCC(F)(C(=O)OC)S(=O)(=O)CCC(F)(F)F (stereo not drawn) [present compound (15), methyl 2-fluoro-2-(3,3,3-trifluoropropylsulfonyl)-8-nonynoate]",–,≥ 90%,–,–,–
"C#CCCCCCC(F)(C(N)=O)S(=O)(=O)CCC(F)(F)F (stereo not drawn) [present compound (16), 2-fluoro-2-(3,3,3-trifluoropropylsulfonyl)-8-nonynamide]",–,≥ 90%,–,–,–
"COC(=O)C(Cl)(CC=CC(F)(F)F)S(=O)(=O)CCC(F)(F)F (stereo not drawn) [present compound (18), methyl 2-chloro-6,6,6-trifluoro-2-(3,3,3-trifluoropropylsulfonyl)-4-hexenoate]",≥ 70%,≥ 90%,–,–,–
"N#CC(CC=CC(F)(F)F)S(=O)(=O)CCC(F)(F)F (stereo not drawn) [present compound (19), 6,6,6-trifluoro-2-(3,3,3-trifluoropropylsulfonyl)-4-hexenenitrile]",–,–,–,–,90%
"C#CCCCCC(C#N)S(=O)(=O)CCC(F)(F)F (stereo not drawn) [present compound (23), 2-(3,3,3-trifluoropropylsulfonyl)-7-octynenitrile]",≥ 70%,≥ 90%,100%,–,90%
"C#CCCCCCC(C#N)S(=O)(=O)CCC(F)(F)F (stereo not drawn) [present compound (24), 2-(3,3,3-trifluoropropylsulfonyl)-8-nonynenitrile]",≥ 70%,≥ 90%,100%,–,90%
"C#CCCCCCCC(C#N)S(=O)(=O)CCC(F)(F)F (stereo not drawn) [present compound (25), 2-(3,3,3-trifluoropropylsulfonyl)-9-decynenitrile]",≥ 70%,≥ 90%,100%,–,–
"C#CCCCCC(Cl)(C#N)S(=O)(=O)CCC(F)(F)F (stereo not drawn) [present compound (26), 2-chloro-2-(3,3,3-trifluoropropylsulfonyl)-7-octynenitrile]",≥ 70%,≥ 90%,100%,–,–
"C#CCC(C)CCC(C#N)S(=O)(=O)CCC(F)(F)F (stereo not drawn) [present compound (27), 5-methyl-2-(3,3,3-trifluoropropylsulfonyl)-7-octynenitrile]",≥ 70%,≥ 90%,100%,–,90%
"C#CCC(CC)CCC(C(=O)OC)S(=O)(=O)CCC(F)(F)F (stereo not drawn) [present compound (30), methyl 5-ethyl-2-(3,3,3-trifluoropropylsulfonyl)-7-octynoate]",≥ 70%,≥ 90%,100%,–,–
"C#CCC(CC)CCC(Cl)(C(=O)OC)S(=O)(=O)CCC(F)(F)F (stereo not drawn) [present compound (31), methyl 2-chloro-5-ethyl-2-(3,3,3-trifluoropropylsulfonyl)-7-octynoate]",≥ 70%,≥ 90%,100%,–,–
"CC(C#N)(C/C=C/C(F)(F)F)S(=O)(=O)CCC(F)(F)F (stereo not drawn) [present compound (34), 6,6,6-trifluoro-2-methyl-2-(3,3,3-trifluoropropylsulfonyl)-4-hexenenitrile]",≥ 70%,≥ 90%,100%,–,–
"CCC(=CCC(C(=O)OC)S(=O)(=O)CCC(F)(F)F)C(F)(F)F (stereo not drawn) [present compound (36), methyl 5-trifluoromethyl-2-(3,3,3-trifluoropropylsulfonyl)-4-heptenoate]",–,≥ 90%,–,–,–
